In the supplement of paper PMC10307832:

Experiments:
Assay in all cases: relative viability (nuclei count vs DMSO), 5 days (fraction); higher = more cells survive
SW 900 = test system: SW 900
Outline: (§1)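 After 5 days of treatment, lung cancer cells in 1536-well plates were fixed and stained in a single step (final 0.05% Triton X-100, 1% formaldehyde, 1 ug/ml Hoechst) and their nuclei counted on 4× images. Treatment had been applied by pin tool the day after seeding as one drug alone or as a fixed anchor-drug dose with five library-drug doses (not always all listed) in √10 steps. Relative viability is the nuclei count of treated wells divided by that of vehicle wells, and values are medians of duplicate plates.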

NCI-H2342 = test system: NCI-H2342
Outline: as §1

Calu-6 = test system: Calu-6
Outline: as §1

NCI-H1703 = test system: NCI-H1703
Outline: as §1

NCI-H1299 = test system: NCI-H1299
Outline: as §1

A549 = test system: A549
Outline: as §1

NCI-H522 = test system: NCI-H522
Outline: as §1

IA-LM = test system: IA-LM
Outline: as §1

EBC-1 = test system: EBC-1
Outline: as §1

NCI-H1648 = test system: NCI-H1648
Outline: as §1

NCI-H1563 = test system: NCI-H1563
Outline: as §1

NCI-H1623 = test system: NCI-H1623
Outline: as §1

## O=c1[nH]c2ccccc2n1C1CCN(CCCC(c2ccc(F)cc2)c2ccc(F)cc2)CC1 [Pimozide] + O=C(c1cc(Cc2n[nH]c(=O)c3ccccc23)ccc1F)N1CCN(C(=O)C2CC2)CC1 [Olaparib] (partner 8 µM)
SW 900; first compound 0.08 µM
  relative viability: 0.955
SW 900; first compound 0.253 µM
  relative viability: 0.893
SW 900; first compound 2.53 µM
  relative viability: 0.839
SW 900; first compound 8 µM
  relative viability: 0.892
NCI-H2342; first compound 0.08 µM
  relative viability: 0.438
NCI-H2342; first compound 0.253 µM
  relative viability: 0.355
NCI-H2342; first compound 0.8 µM
  relative viability: 0.397
NCI-H2342; first compound 2.53 µM
  relative viability: 0.403
NCI-H2342; first compound 8 µM
  relative viability: 0.411
Calu-6; first compound 0.08 µM
  relative viability: 0.651
Calu-6; first compound 0.253 µM
  relative viability: 0.568
Calu-6; first compound 0.8 µM
  relative viability: 0.597
Calu-6; first compound 2.53 µM
  relative viability: 0.575
Calu-6; first compound 8 µM
  relative viability: 0.425
NCI-H1703; first compound 0.08 µM
  relative viability: 0.352
NCI-H1703; first compound 0.253 µM
  relative viability: 0.324
NCI-H1703; first compound 0.8 µM
  relative viability: 0.374
NCI-H1703; first compound 2.53 µM
  relative viability: 0.439
NCI-H1703; first compound 8 µM
  relative viability: 0.341
NCI-H1299; first compound 0.08 µM
  relative viability: 0.983
NCI-H1299; first compound 0.253 µM
  relative viability: 0.973
NCI-H1299; first compound 0.8 µM
  relative viability: 0.931
NCI-H1299; first compound 2.53 µM
  relative viability: 0.948
NCI-H1299; first compound 8 µM
  relative viability: 0.898
A549; first compound 0.08 µM
  relative viability: 0.237
A549; first compound 0.253 µM
  relative viability: 0.319
A549; first compound 0.8 µM
  relative viability: 0.271
A549; first compound 2.53 µM
  relative viability: 0.34
A549; first compound 8 µM
  relative viability: 0.347
NCI-H522; first compound 0.08 µM
  relative viability: 0.569
NCI-H522; first compound 0.253 µM
  relative viability: 0.54
NCI-H522; first compound 0.8 µM
  relative viability: 0.751
NCI-H522; first compound 2.53 µM
  relative viability: 0.592
NCI-H522; first compound 8 µM
  relative viability: 0.72
IA-LM; first compound 0.08 µM
  relative viability: 0.84
IA-LM; first compound 0.253 µM
  relative viability: 0.737
IA-LM; first compound 0.8 µM
  relative viability: 0.873
IA-LM; first compound 2.53 µM
  relative viability: 0.82
IA-LM; first compound 8 µM
  relative viability: 0.812
EBC-1; first compound 0.08 µM
  relative viability: 0.651
EBC-1; first compound 0.253 µM
  relative viability: 0.695
EBC-1; first compound 0.8 µM
  relative viability: 0.723
EBC-1; first compound 2.53 µM
  relative viability: 0.626
EBC-1; first compound 8 µM
  relative viability: 0.676
NCI-H1648; first compound 0.08 µM
  relative viability: 0.805
NCI-H1648; first compound 0.8 µM
  relative viability: 0.522
NCI-H1648; first compound 2.53 µM
  relative viability: 0.619
NCI-H1648; first compound 8 µM
  relative viability: 1.1

## O=c1[nH]c2ccccc2n1C1CCN(CCCC(c2ccc(F)cc2)c2ccc(F)cc2)CC1 [Pimozide] + O=C(CCCCCCC(=O)Nc1ccccc1)NO [Vorinostat] (partner 1 µM)
SW 900; first compound 0.08 µM
  relative viability: 0.655
SW 900; first compound 0.253 µM
  relative viability: 0.45
SW 900; first compound 2.53 µM
  relative viability: 0.509
SW 900; first compound 8 µM
  relative viability: 0.3
NCI-H2342; first compound 0.08 µM
  relative viability: 0.778
NCI-H2342; first compound 0.253 µM
  relative viability: 0.77
NCI-H2342; first compound 0.8 µM
  relative viability: 0.658
NCI-H2342; first compound 2.53 µM
  relative viability: 0.75
NCI-H2342; first compound 8 µM
  relative viability: 0.696
NCI-H522; first compound 0.08 µM
  relative viability: 0.848
NCI-H522; first compound 0.253 µM
  relative viability: 0.908
NCI-H522; first compound 0.8 µM
  relative viability: 0.673
NCI-H522; first compound 2.53 µM
  relative viability: 0.817
NCI-H522; first compound 8 µM
  relative viability: 0.81
IA-LM; first compound 0.08 µM
  relative viability: 0.931
IA-LM; first compound 0.253 µM
  relative viability: 0.923
IA-LM; first compound 2.53 µM
  relative viability: 0.913
IA-LM; first compound 8 µM
  relative viability: 0.99
NCI-H1648; first compound 0.08 µM
  relative viability: 0.315
NCI-H1648; first compound 0.8 µM
  relative viability: 0.527
NCI-H1648; first compound 2.53 µM
  relative viability: 0.228
NCI-H1648; first compound 8 µM
  relative viability: 0.347

## O=C(O)CCCCC(CCSCc1ccccc1)SCc1ccccc1 (centres undefined) [CPI-613] + NC(=O)Nc1cc(-c2cccc(F)c2)sc1C(=O)N[C@H]1CCCNC1 [AZD7762] (partner 0.2 µM)
SW 900; first compound 5 µM
  relative viability: 0.685
SW 900; first compound 50 µM
  relative viability: 0.692
SW 900; first compound 158.11 µM
  relative viability: 0.273
SW 900; first compound 500 µM
  relative viability: 0.0039
NCI-H2342; first compound 5 µM
  relative viability: 0.489
NCI-H2342; first compound 15.81 µM
  relative viability: 0.454
NCI-H2342; first compound 50 µM
  relative viability: 0.437
NCI-H2342; first compound 158.11 µM
  relative viability: 0.522
NCI-H2342; first compound 500 µM
  relative viability: 0.576
NCI-H1703; first compound 5 µM
  relative viability: 0.133
NCI-H1703; first compound 15.81 µM
  relative viability: 0.12
NCI-H1703; first compound 50 µM
  relative viability: 0.134
NCI-H1703; first compound 158.11 µM
  relative viability: 0.118
NCI-H1703; first compound 500 µM
  relative viability: 0.12
NCI-H522; first compound 5 µM
  relative viability: 0.899
NCI-H522; first compound 15.81 µM
  relative viability: 0.887
NCI-H522; first compound 50 µM
  relative viability: 0.953
NCI-H522; first compound 158.11 µM
  relative viability: 0.631
NCI-H522; first compound 500 µM
  relative viability: 0.563
NCI-H1648; first compound 5 µM
  relative viability: 0.622
NCI-H1648; first compound 15.81 µM
  relative viability: 0.701
NCI-H1648; first compound 50 µM
  relative viability: 0.645
NCI-H1648; first compound 158.11 µM
  relative viability: 0.626
NCI-H1648; first compound 500 µM
  relative viability: 0.665

## O=C(O)CCCCC(CCSCc1ccccc1)SCc1ccccc1 (centres undefined) [CPI-613] + Cc1nc(Nc2ncc(C(=O)Nc3c(C)cccc3Cl)s2)cc(N2CCN(CCO)CC2)n1 [Dasatinib] (partner 0.075 µM)
SW 900; first compound 5 µM
  relative viability: 0.692
SW 900; first compound 15.81 µM
  relative viability: 0.542
SW 900; first compound 50 µM
  relative viability: 0.686
SW 900; first compound 158.11 µM
  relative viability: 0.262
SW 900; first compound 500 µM
  relative viability: 0.121
NCI-H1563; first compound 5 µM
  relative viability: 0.455
NCI-H1563; first compound 15.81 µM
  relative viability: 0.443
NCI-H1563; first compound 50 µM
  relative viability: 0.436
NCI-H1563; first compound 158.11 µM
  relative viability: 0.461
NCI-H1563; first compound 500 µM
  relative viability: 0.456
NCI-H2342; first compound 5 µM
  relative viability: 0.315
NCI-H2342; first compound 15.81 µM
  relative viability: 0.275
NCI-H2342; first compound 50 µM
  relative viability: 0.315
NCI-H2342; first compound 158.11 µM
  relative viability: 0.286
NCI-H2342; first compound 500 µM
  relative viability: 0.294
NCI-H1623; first compound 5 µM
  relative viability: 0.592
NCI-H1623; first compound 15.81 µM
  relative viability: 0.566
NCI-H1623; first compound 50 µM
  relative viability: 0.549
NCI-H1623; first compound 158.11 µM
  relative viability: 0.39
NCI-H1623; first compound 500 µM
  relative viability: 0.569
NCI-H522; first compound 5 µM
  relative viability: 0.818
NCI-H522; first compound 15.81 µM
  relative viability: 1.01
NCI-H522; first compound 50 µM
  relative viability: 0.922
NCI-H522; first compound 158.11 µM
  relative viability: 0.84
NCI-H522; first compound 500 µM
  relative viability: 0.494
